Test results as given in publication PMC3072031 (Analytical chemistry, 2010).

Tests used:
detection conjugate = format: binding; details: deduced from equation (1)
Aβ(1–40) mAb = details: reported value; ref [41]; cited from earlier work

| Substance | KD deduced from Langmuir isotherm, in words (detection conjugate) | KD between the Aβ(1–40) mAb and Aβ(1–40), in words (Aβ(1–40) mAb) |
| --- | --- | --- |
| Aβ(1–42): 42-residue-long amyloid-β peptide, purchased from American Peptide Inc.; endogenous peptide in human CSF samples | nanomolar level | – |
| Aβ(1–40): amyloid-β peptide, purchased from American Peptide Inc.; endogenous peptide in human CSF samples | nanomolar level | nanomolar level |
